Results as given in patent US11602551B2, “Use of inosine for the treatment of t-reg deficiency” (BioGaia AB, priority 2016, dated 2023).

Test system: Splenic lymphocytes
Assay: Lymphocyte proliferation test (XTT)
Format: cell-based, mice
Protocol: Splenic lymphocytes were split into 96-well plates at an initial density of 2×10^4 cells per well and were incubated with different doses of inosine under control, 40 μg/ml of LPS or 10 μg/ml of PHA condition, respectively. After 96 h, cell viability was measured by TACS XTT cell proliferation assay kit (Trevigen, Inc. Gaithersburg, Md.).

SMILES: O=c1[nH]cnc2c1ncn2[C@@H]1O[C@H](CO)[C@@H](O)[C@H]1O [inosine]
- proliferation of PHA-stimulated T-lymphocytes (96 h treatment, 10 μg/ml of PHA): does not inhibit
- proliferation of LPS-stimulated B-lymphocytes (96 h treatment, 40 μg/ml of LPS): does not inhibit
- proliferation of lymphocytes in vitro (different doses of inosine, 96 h): did not inhibit
